Assay [1] concerns the target T1, PqsE(WT) (Pseudomonas aeruginosa, UniProt P20581).
T1 construct: 6xHis (N); made in house; host or cells: E. coli BL21 (DE3)
Put plainly: Esterase assay: inhibition of PqsE-catalyzed MU-butyrate hydrolysis. It counts as biochemical. As for the experimental part: Purified PqsE, diluted in assay buffer (50 mM Tricine, 0.01% Triton X-100, pH 8.5), was added to the wells of an opaque 384-well plate at a final concentration of 125 nM. Test molecules were diluted in DMSO and added to the wells at the indicated concentrations (5% DMSO final). The plate was then incubated at room temperature for 5 min. MU-butyrate in assay buffer was added to the plate at a final concentration of 2 µM. The plate was incubated at room temperature for 20 min prior to measuring fluorescence (excitation: 360 nm and emission: 450 nm) to monitor the hydrolysis of MU-butyrate. All data were plotted in the Prism 9.0 program, and IC50 values were calculated from inhibition curves fit to the data.

The next assay deals with T2, PqsE(S285Y) (Pseudomonas aeruginosa, UniProt P20581, S285Y).
T2 construct: made in house
In kind it is binding. To be noted: PqsE(S285Y) 2 µM, compound 100 µM.

The target in assay [2] is T1, PqsE(WT). Put plainly: Differential scanning fluorimetry (DSF), PqsE(WT). The following applies: PqsE(WT) 2 µM, compound 100 µM. It counts as binding. As for the experimental part: Compounds HJ1, HJ2, and HJ5 were tested for the ability to bind and shift the Tm of purified PqsE and PqsE variants using DSF as described previously with some modifications ([18]). Briefly, compounds in DMSO were diluted in assay buffer (50 mM Tris, 150 mM NaCl, 200 µM MnCl2, pH 8) to achieve a final concentration of 100 µM (1% DMSO). Compound solutions were transferred to the wells of a 96-well PCR plate (ThermoFisher), and control wells were prepared with 1% DMSO (negative control). SYPRO Orange Dye and PqsE solutions were diluted in assay buffer and subsequently added to the wells to reach final concentrations of 7× SYPRO Orange and 2 µM PqsE. Final volume in each well was 80 µL. Plates were sealed with transparent optical adhesive covers (ThermoFisher) prior to measurement of SYPRO Orange fluorescence (ex, 580 nm; em, 623 nm) in a QuantStudio 3 Real-Time PCR system (ThermoFisher) over an increasing temperature gradient from 25 to 90°C (temperature increased at a rate of 0.1°C/s). Tm was determined from first derivative plots of the raw fluorescence curves using the Prism 9.0 software.

The target of a further assay is T3, PqsE(E182A) (Pseudomonas aeruginosa, UniProt P20581, E182A).
T3 construct: made in house
It counts as binding. To be noted: PqsE(E182A) 2 µM, compound 100 µM.

For assay [3], the target named is T4, PqsE(S285A) (Pseudomonas aeruginosa, UniProt P20581, S285A). Put plainly: Differential scanning fluorimetry (DSF), PqsE(S285A). It counts as binding. To be noted: compound 100 µM; for Tm of PqsE-HJ complex / ∆Tm, shift in melting temperature vs DMSO-treated control: PqsE(S285A) 2 µM.
For the next assay, the target named is T5, PqsE(E182W/E280A) (Pseudomonas aeruginosa, UniProt P20581, E182W/E280A).
T5 construct: made in house
It counts as binding. The following applies: PqsE(E182W/E280A) 2 µM, compound 100 µM.

Another assay has as its target T6, PqsE(E280A) (Pseudomonas aeruginosa, UniProt P20581, E280A).
T6 construct: made in house
It counts as binding. To be noted: PqsE(E280A) 2 µM, compound 100 µM.

Assay [4] addresses T7, PqsE(S285W) (Pseudomonas aeruginosa, UniProt P20581, S285W).
T7 construct: 6xHis (N); made in house; host or cells: E. coli BL21 (DE3)
It counts as binding. To be noted: compound 100 µM; for Tm of PqsE-HJ complex / ∆Tm, shift in melting temperature vs DMSO-treated control: PqsE(S285W) 2 µM.

The target of a further assay is T8, PqsE(E182W) (Pseudomonas aeruginosa, UniProt P20581, E182W).
T8 construct: made in house
It counts as binding. To be noted: PqsE(E182W) 2 µM, compound 100 µM.

The target of a further assay is T9, PqsE(S285D) (Pseudomonas aeruginosa, UniProt P20581, S285D).
T9 construct: made in house
It counts as binding. To be noted: PqsE(S285D) 2 µM, compound 100 µM.

In assay [5] the target is T1, PqsE(WT). To be noted: 10 min trypsin.
Assay [6] has as its target T4, PqsE(S285A). Put plainly: Esterase assay: inhibition of MU-butyrate hydrolysis by PqsE(S285A). It counts as biochemical.
The target of the next assay is T10, PqsE-RhlR interaction (Pseudomonas aeruginosa, UniProt P20581).
T10 construct: made in house; host or cells: Escherichia coli (PqsE purified; RhlR as crude lysate from a pET23a-rhlR strain grown with mBTL)
Briefly: PqsE-RhlR in vitro pull-down. It counts as binding. The following applies: up to 100 µM, 1 µM 6xHis-PqsE(WT), RhlR-containing lysate. As for the experimental part: RhlR was expressed following a previously established method ([18], [19]). Briefly, lysate was prepared from cultures of an Escherichia coli strain carrying rhlR on a pET23a plasmid that had been treated with the RhlR-solubilizing ligand, mBTL ([33]). The pull-down assay was conducted following a previously established method with some modifications ([18]). Briefly, purified 6xHis-PqsE(WT) was incubated with test molecules at the specified concentrations for 10 min at room temperature. The treated PqsE was then added to 100 µL of RhlR-containing lysate in lysis buffer (50 mM Tris-HCl, 150 mM NaCl, 20 mM imidazole, pH = 8.0) to a total final volume of 150 µL and a final PqsE concentration of 1 µM (final 0.6% DMSO). The mixtures were incubated at 4°C with rotation for 30 min before MagneHis Ni resin (Promega) was added (10 µL of settle volume), and incubation at 4°C with rotation was continued for 1 h. The Ni resin was then washed three times with lysis buffer, and then PqsE complexes were eluted with 50 µL elution buffer (50 mM Tris-HCl, 150 mM NaCl, 500 mM imidazole, pH = 8.0). The eluted proteins were then denatured in Laemmli sample buffer at 95°C and analyzed by SDS-PAGE.

For assay [7], the target named is T7, PqsE(S285W). It counts as biochemical. The following applies: esterase assay.
Assay [8] has as its system wild-type P. aeruginosa PA14. Briefly: Pyocyanin assay, wild-type strain. The following applies: WT strain, ~17 h. In kind it is cell-based, Pseudomonas aeruginosa. As for the experimental part: P. aeruginosa PA14 cultures were grown overnight in LB at 37°C with shaking. The saturated cultures were then diluted 1:1,000 into fresh LB containing test molecules in DMSO (final 1% DMSO). Cultures then grew for ~17 h at 37°C with shaking at 200 rpm. Next, 1 mL of each culture was collected and pelleted by centrifugation at 13,000 rpm for 3 min. The supernatant was carefully transferred to a cuvette, and the OD695 was measured in a Genesys 20 ThermoSpectronic spectrophotometer. The cell pellet was resuspended in 1 mL of PBS and then transferred into the wells of a clear 96-well plate at 100 µL per well. The OD600 was measured to assess cell density. Pyocyanin production (OD695) of the supernatants was normalized to cell density (OD600 of the resuspended cell pellets).

Like-named read-outs stand apart in the source and are kept apart here.

For the compound `CC(C)(C)CNC(=O)Nc1ccc(NC(=O)c2cccc3cn[nH]c23)cc1` [BB584, reference compound], the IC50 at PqsE(WT) [1] (125 nM PqsE, 2 µM MU-butyrate, pH 8.5, read-out: IC50, inhibition of PqsE enzyme function (MU-butyrate hydrolysis)) came to 108 nM.

On to `Cc1n[nH]c2c(C(=O)Nc3ccc(NC(=O)OC(C)(C)C)cc3)cccc12` [HJ2], for which the “Tm of PqsE-HJ complex” value came to 68.2 °C at PqsE(S285Y); 67.7 °C on PqsE(WT) [2]; 69.2 °C at PqsE(E182A); 67.9 °C at PqsE(S285A) [3]; 70.0 °C on PqsE(E182W/E280A); 67.1 °C on PqsE(E280A). Further, the “Tm of PqsE-HJ complex” value at PqsE(S285W) [4] was determined as 66.8 °C; on PqsE(E182W), 73.9 °C; at PqsE(S285D), 67.0 °C. Besides, the “∆Tm, shift in melting temperature vs DMSO-treated control” value (from here on “∆Tm, shift in melting temperature”) on PqsE(S285Y) was 0.41 °C; on PqsE(WT) [2], 0.74 °C; at PqsE(E182A) it was -0.47 °C; on PqsE(S285A) [3], 0.61 °C; on PqsE(E182W/E280A), 0.20 °C; at PqsE(E280A), 0.61 °C. Moreover, the “∆Tm, shift in melting temperature” value at PqsE(S285W) [4] was determined as 0.07 °C; on PqsE(E182W), 0.48 °C; on PqsE(S285D) it was 0.14 °C. In addition, the “inhibitory activity on enzymatic activity of PqsE” value against PqsE(WT) [1] (esterase assay, dilution series) is “virtually no effect”.

Regarding `Cc1ccc(C(=O)Nc2ccc(NC(=O)OC(C)(C)C)cc2)c2[nH]ncc12` [HJ5], the “Tm of PqsE-HJ complex” value on PqsE(S285Y) came to 68.2 °C; on PqsE(WT) [2], 68.8 °C; on PqsE(E182A), 70.6 °C; on PqsE(S285A) [3] it was 68.6 °C; on PqsE(E182W/E280A), 71.9 °C; on PqsE(E280A), 67.7 °C. Further, the “Tm of PqsE-HJ complex” value turned out to be 67.5 °C at PqsE(S285W) [4], 75.5 °C at PqsE(E182W) and 67.3 °C at PqsE(S285D). The “∆Tm, shift in melting temperature” value at PqsE(S285Y) came to 0.40 °C; on PqsE(WT) [2] it was 1.82 °C; on PqsE(E182A) it was 1.00 °C; at PqsE(S285A) [3], 1.35 °C; on PqsE(E182W/E280A), 2.12 °C; on PqsE(E280A), 1.21 °C. Besides, the “∆Tm, shift in melting temperature” value is 0.74 °C at PqsE(S285W) [4], 2.05 °C on PqsE(E182W) and 0.48 °C on PqsE(S285D). Besides, the “band intensity of undigested protein (band 1) after trypsin exposure” value at PqsE(WT) [5] (increasing concentrations up to 100 µM) is given as “increases as the concentration of HJ5 increases”. Also, the “induction of PqsE(E182W)-like banding pattern (conformational change) upon tryptic digest” value on PqsE(WT) [5] (up to 100 µM, 10 µM PqsE(WT)) is given as “did not produce a banding pattern similar to that of PqsE(E182W)”. Moreover, the “increase of IC50 against PqsE(S285A) variant versus PqsE(WT)” value on PqsE(S285A) [6] (20 min) is given as “approximately 10 fold”. Besides, the “maximum level of inhibition of PqsE(S285A)” value on PqsE(S285A) [6] (% inhibition) is “approximately 10%”. This compound also gave an IC50 against PqsE(WT) [1] of 379 nM. Moreover, the “maximum level of inhibition of PqsE(WT)” value on PqsE(WT) [1] (% inhibition) is on record as ~ 50%. For the same compound, the “significance of shift in Tm compared to HJ2” value at PqsE(S285A) [3] (PqsE(S285A)) and at PqsE(S285W) [4] (PqsE(S285W)) was “neither HJ1 nor HJ5 induced significant shifts in Tm” each time. For the same compound, at PqsE-RhlR interaction, the “effect on PqsE-RhlR complex formation” value was “neither HJ1 nor HJ5 showed any effect on complex formation”. For the same compound, at PqsE(S285W) [7], the “effect of S285W substitution on binding/inhibition” value was “completely abrogated binding”. For the same compound, the “decrease in pyocyanin production compared to DMSO-treated WT strain” value in assay [8] (100 µM) is recorded as ~ 37%. Further, in assay [8] (Pseudomonas aeruginosa, PA14, 50 µM, read-out: inhibition of pyocyanin production compared to DMSO-treated WT strain), the inhibition at 50 µM was around 30%.

The values are drawn from article PMC13203959, “New inhibitors of the Pseudomonas aeruginosa enzyme, PqsE, and methods assessing their potential to induce a conformational change via active site binding” (mSphere, 2026).
